Assay results published in patent US20230219979A1, “PYRAZOLO[1,5-a]PYRIDINE COMPOUND, PREPARATION METHOD THEREFOR AND USE THEREOF” (SHENZHEN ZHONGGE BIOLOGICAL TECHNOLOGY CO., LTD., priority 2019, published 2023).
Like-named read-outs stand apart in the source and are kept apart here.

Biological target: Wild-type RET kinase (Homo sapiens, UniProt P07949)
Assay: HTRF method for testing the inhibitory activity of compounds against RET
Format: biochemical
[1] = HTRF, read-out: Wild-type RET kinase

Sequence of Wild-type RET kinase (P07949 29-1114): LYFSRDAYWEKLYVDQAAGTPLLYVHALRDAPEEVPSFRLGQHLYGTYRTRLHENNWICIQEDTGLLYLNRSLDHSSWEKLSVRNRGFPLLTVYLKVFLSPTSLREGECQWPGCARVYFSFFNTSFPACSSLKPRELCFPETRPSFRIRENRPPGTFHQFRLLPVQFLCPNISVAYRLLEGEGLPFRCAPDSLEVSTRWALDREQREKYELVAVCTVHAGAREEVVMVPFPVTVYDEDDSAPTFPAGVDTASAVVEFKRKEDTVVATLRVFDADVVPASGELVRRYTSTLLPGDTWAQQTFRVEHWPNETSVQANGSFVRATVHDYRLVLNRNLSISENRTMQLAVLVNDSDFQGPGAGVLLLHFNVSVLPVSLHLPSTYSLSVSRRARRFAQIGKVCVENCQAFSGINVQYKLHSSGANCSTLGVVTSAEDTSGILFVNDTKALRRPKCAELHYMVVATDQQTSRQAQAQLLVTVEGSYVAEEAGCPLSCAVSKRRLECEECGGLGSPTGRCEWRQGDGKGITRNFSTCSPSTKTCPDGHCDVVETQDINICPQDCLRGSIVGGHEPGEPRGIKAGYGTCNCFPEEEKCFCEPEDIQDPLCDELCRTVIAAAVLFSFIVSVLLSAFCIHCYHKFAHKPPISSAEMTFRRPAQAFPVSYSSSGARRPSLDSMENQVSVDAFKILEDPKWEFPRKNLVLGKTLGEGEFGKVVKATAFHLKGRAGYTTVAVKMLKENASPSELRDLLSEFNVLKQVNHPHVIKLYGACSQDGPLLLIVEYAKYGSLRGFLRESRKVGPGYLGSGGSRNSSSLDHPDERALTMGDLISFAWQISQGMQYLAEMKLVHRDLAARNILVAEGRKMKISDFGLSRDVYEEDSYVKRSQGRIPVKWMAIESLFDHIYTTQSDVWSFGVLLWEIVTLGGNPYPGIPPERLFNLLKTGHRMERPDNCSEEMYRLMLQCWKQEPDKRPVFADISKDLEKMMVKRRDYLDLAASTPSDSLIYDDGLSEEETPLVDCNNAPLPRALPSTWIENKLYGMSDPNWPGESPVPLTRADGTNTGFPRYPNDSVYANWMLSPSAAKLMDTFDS

| SMILES | IC50 [1] [nM] | IC50 [nM] |
| --- | --- | --- |
| COc1ccc(CN2C3CC2CN(c2ccc(-c4cc(NCC5CCOC5)cn5ncc(C#N)c45)cn2)C3)cn1 (stereo not drawn) [Compound 65, 4-(6-(6-((6-methoxypyridin-3-yl)methyl)-3,6-diazabicyclo[3.1.1]heptyl-3-yl)pyridin-3-yl)-6-(((tetrahydrofuran-3-yl)methyl)amino)pyrazolo[1,5-a]pyridine-3-carbonitrile] | 6.05 | – |
| CNC(=O)c1cnn2cc(-c3cnn(C)c3)cc(-c3ccc(N4CCN(Cc5ccc(OC)nc5)CC4)nc3)c12 [Compound 6] | 678 | – |
| CCNC(=O)Oc1cc(-c2cnc(N3CC4CC(C3)N4Cc3ccc(OC)nc3)cn2)c2c(C#N)cnn2c1 [Compound 42, 3-cyano-4-(5-(6-((6-methoxypyridin-3-yl)methyl)-3,6-diazabicyclo[3.1.1]heptan-3-yl)pyrazin-2-yl)pyrazolo[1,5-a]pyridin-6-ylethylcarbamate] | – | 9.2 |
| COc1ccc(CN2C3CC2CN(c2cnc(-c4cc(NCC5CC5)cn5ncc(C#N)c45)cn2)C3)cn1 [Compound 53] | 5.54 | – |
| COc1ccc(CN2C3CC2CN(c2cnc(-c4cc(N(C)CCN(C)C)cn5ncc(C#N)c45)cn2)C3)cn1 [Compound 58, 6-((2-(dimethylamino)ethyl)(methyl)amino)-4-(5-(6-((6-methoxypyridin-3-yl)methyl)-3,6-diazabicyclo[3.1.1]heptan-3-yl)pyrazin-2-yl)pyrazolo[1,5-a]pyridine-3-carbonitrile] | 10.4 | – |
| CNC(=O)Nc1cnn2cc(-c3cnn(C)c3)cc(-c3ccc(N4CCN(Cc5ccc(OC)nc5)CC4)nc3)c12 [Compound 9, 1-(4-(6-(4-((6-methoxypyridin-3-yl)methyl)piperazin-1-yl)pyridin-3-yl)-6-(1-methyl-1H -pyrazol-4-yl)pyrazolo[1,5-a]pyridin-3-yl)-3-methylurea] | > 10000 | – |
| COc1ccc(CN2CCN(c3ccc(-c4cc(-c5cnn(C)c5)cn5ncc(NC(=O)c6cncn6C)c45)cn3)CC2)cn1 [Compound 12, N-(4-(6-(4-((6-methoxypyridin-3-yl)methyl)piperazin-1-yl)pyridin-3-yl)-6-(1-methyl-1H-pyrazol-4-yl)pyrazolo[1,5-a]pyridin-3-yl)-1-methyl-1H-imidazole-5-carboxamide] | > 10000 | – |
| CCNC(=O)c1cnn2cc(-c3cnn(C)c3)cc(-c3ccc(N4CCN(c5ccc(OC)nc5)CC4)nc3)c12 [Compound 3, N-ethyl-4-(6-(4-(6-methoxypyridin-3-yl)piperazin-1-yl)pyridin-3-yl)-6-(1-methyl-1H-pyridinoxazol-4-yl)H-pyrazolo[1,5-a]pyridine-3-carboxamide] | > 10000 | – |
| COc1ccc(CN2CCN(c3ccc(-c4cc(-c5cnn(C)c5)cn5ncc(NC(C)=O)c45)cn3)CC2)cn1 [Compound 4, N-(4-(6-(4-((6-methoxypyridin-3-yl)methyl)piperazin-1-yl)pyridin-3-yl)-6-(1-methyl-1H-pyrazol-4-yl)pyrazol[1,5-a]pyridin-3-yl)acetamide] | 6590 | – |
| COc1ccc(CN2CCN(c3ccc(-c4cc(-c5cnn(C)c5)cn5ncc(NC(=O)c6ccccc6)c45)cn3)CC2)cn1 [Compound 11, N-(4-(6-(4-((6-methoxypyridin-3-yl)methyl)piperazin-1-yl)pyridin-3-yl)-6-(1-methyl-1H-pyrazol-4-yl)pyrazolo[1,5-a]pyridin-3-yl)benzamide] | > 10000 | – |
| COc1ccc(CN2C3CC2CN(c2ccc(-c4cc(NCC5CCOCC5)cn5ncc(C#N)c45)cn2)C3)cn1 [Compound 54, 4-(6-(6-((6-methoxypyridin-3-yl)methyl)-3,6-diazabicyclo[3.1.1]heptyl-3-yl)pyridin-3-yl)-6-(((-2H-pyran-4-yl)methyl)amino)pyrazolo[1,5-a]pyridine-3-carbonitrile] | 2.76 | – |
| COc1ccc(CN2C3CC2CN(c2ccc(-c4cc(NCC5CCCCC5)cn5ncc(C#N)c45)cn2)C3)cn1 [Compound 60, 6-((cyclohexylmethyl)amino)-4-(6-(6-((6-methoxypyridin-3-yl)methyl)-3,6-diazabicyclo[3.1.1]heptan-3-yl)pyridin-3-yl)pyrazolo[1,5-a]pyridine-3-carbonitrile] | 29.6 | – |
